Tests used:
[1] = test system: gel-filtered platelets; experiment: Inhibition of SFLLRN-NH2-induced gel-filtered platelet aggregation; assay type: cell-based; details: aggregation initiated by SFLLRN-NH2 (2 μM), OD 650 at 0 and 5 min
Protocol: (§1) In Vitro Inhibition Of Thrombin- and SFLLRN-NH2-Induced Gel-Filtered Platelet Aggregation Assay
(§2) Platelet Rich Plasma concentrate (Biological Specialties, Inc) is gel filtered (Sepharose 2B, Pharmacia) in Tyrode's buffer (140 mM NaCl, 2.7 mM KCl, 12 mM NaHCO3, 0.76 mM Na2HPO4, 5.5 mM dextrose, 5.0 mM Hepes, and 2 mg/ml BSA @ pH 7.4). The gel-filtered platelets are diluted with Tyrode's buffer (143,000 platelets/μl, final platelet count per well), compound solution in buffer, and 2 mM CaCl2 in a 96 well plate. Platelet aggregation is initiated by the addition of human α-thrombin (American Diagnostica, 0.113 nM-0.187 nM) or SFLLRN-NH2 (2 μM) shown to achieve 80% aggregation (0.015-0.025 NIH U/ml, 0.113 nM-0.187 nM). The assay plate is stirred constantly. Platelet aggregation is monitored by intermittently placing the plate in a microplate reader (Molecular Devices) to read optical density ([…], ΔSOFT) at 0 and 5 minutes after the thrombin addition. Aggregation was calculated to be the decrease in optical density between the time 0 and 5 minute measurements. All samples were tested in duplicate wells on the same plate.

[2] = test system: gel-filtered platelets; experiment: Inhibition of thrombin-induced gel-filtered platelet aggregation; assay type: cell-based; details: aggregation initiated by human α-thrombin 0.113 nM-0.187 nM, OD 650 at 0 and 5 min
Protocol: as §1, §2
(§3) Table 3 contains IC50 values (μM) of the compounds against platelet aggregation stimulated by thrombin and IC50 values (μM) in a thrombin receptor (PAR-1) binding assay.

[3] = biological target: T1, thrombin receptor (PAR-1) (Homo sapiens, UniProt P25116); experiment: In vitro thrombin receptor binding assay (CHRF membranes); details: tritiated 721-40 (Ser-pFPhe-Har-Leu-Har-Lys-Tyr-NH2), 30 min incubation
T1 construct: CHRF membranes (Jones, Biochim. Biophys. Acta 1992, 1136, 272) are thawed from −70° C; endogenous in cells; host or cells: CHRF cell membranes (CHRF-288 megakaryoblastic line, per the cited Jones 1992)
T1 sequence (P25116 22-425): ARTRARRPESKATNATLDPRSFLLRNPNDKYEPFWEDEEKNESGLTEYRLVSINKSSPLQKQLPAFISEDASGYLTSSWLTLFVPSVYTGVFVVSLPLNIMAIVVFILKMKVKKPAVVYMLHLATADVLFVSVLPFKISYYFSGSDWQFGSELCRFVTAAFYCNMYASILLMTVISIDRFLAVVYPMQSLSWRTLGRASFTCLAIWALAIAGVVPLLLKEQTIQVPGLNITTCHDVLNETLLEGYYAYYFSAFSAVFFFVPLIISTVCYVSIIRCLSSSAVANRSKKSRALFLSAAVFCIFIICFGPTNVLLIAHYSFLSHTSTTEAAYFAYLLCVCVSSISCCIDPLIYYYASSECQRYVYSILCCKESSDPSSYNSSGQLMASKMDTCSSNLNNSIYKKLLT
Protocol: In Vitro Thrombin Receptor Binding Assay
CHRF membranes (Jones, Biochim. Biophys. Acta 1992, 1136, 272) are thawed from −70° C., centrifuged at maximum speed for 5 min, washed twice with binding buffer (50 mM HEPES containing 5 mM MgCl2 and 0.1% BSA), and re-suspended in binding buffer ([…]). 100 μL of membranes are added to the 24-Wallac plates and delivered to the Tomtech apparatus. In a typical experiment, 6 μL of samples (from a 125 μg/mL intermediary plate, 20% DMSO) and 44 μL buffer are delivered to the plates (final conc. of compounds is 3.7 μg/mL, 0.6% DMSO). Similarly, 6 μL 20% DMSO and 44 μL buffer are delivered to both column 1 (NSB) and column 12 (TB). 10 μL Ser-pFPhe-Har-Leu-Har-Lys-Tyr-NH2 (721-40; 500 μM in deionized water) is added to column 1. 50 μL tritiated 721-40 (specific activity 46 Ci/mmol) is added to all the wells. The plates are mixed well for 20 seconds, incubated for 30 min, and then harvested with 10 mM HEPES/138 mM NaCl using the Skatron harvester. The filters (GF/C Brandel FPXLR 296) are presoaked 3 h in 0.5% polyethylenimine in HEPES/0.1M N-acetylglucosamine) are set in saran wrap and dried for 3 min in the microwave, and placed in sample bags (Wallac 1450-432). 4.5 mL scintillation fluid (Wallac, Betaplate Scint 1205-440) is added. The bags are sealed, placed in filter cassettes (Wallac 1450-104), and analyzed on the microbeta counter.
as §3

SMILES	IC50 ([1]; Platelet)	IC50 ([2]; Platelet)	IC50 [1]	IC50 [3]	IC50 [2]
CCCNCc1cn(Cc2ccc(F)cc2)c2ccc(NC(=O)[C@@H](Cc3ccccc3)NC(=O)[C@@H](CCCNC(=N)N)NC(=O)OC3c4ccccc4-c4ccccc43)cc12 [Compound 1]	43.7 µM	51.6 µM	–	–	–
N=C(N)NCCCC(NC(=O)Cc1ccccc1)C(=O)NC(Cc1ccccc1)C(=O)Nc1ccc2c(c1)c(CN1CCCC1)cn2Cc1ccc(F)cc1 (centres unmarked) [Compound 17, 5-Guanidino-2-phenylacetylamino-pentanoic acid {1-[1-(4-fluoro-benzyl)-3-pyrrolidin-1-ylmethyl-1H-indol-5-ylcarbamoyl]-2-phenyl-ethyl}-amide]	–	–	9.8 µM	10.4 µM	44.5 µM
N=C(N)NCCC[C@H](NC(=O)OCc1ccccc1)C(=O)N[C@@H](Cc1ccccc1)C(=O)Nc1ccc2c(CN3CCCC3)cn(Cc3ccc(F)cc3)c2c1 [Compound 19]	11.1 µM	18.7 µM	–	2.4 µM	–
CC(=O)N[C@@H](CCCNC(=N)N)C(=O)N[C@@H](CC1CCCCC1)C(=O)Nc1ccc2c(CN3CCCC3)cn(Cc3ccc(F)cc3)c2c1 [Compound 21]	3.2 µM	4.7 µM	–	10.7 µM	–
